Data taken from the supplement of paper PMC10307832.

Legend:
Assay in all cases: relative viability (nuclei count vs DMSO), 5 days (fraction); higher = more cells survive
EHT 1864 = compound: C1COCCN1CC2=CC(=O)C(=CO2)OCCCCCSC3=C4C=CC(=CC4=NC=C3)C(F)(F)F [EHT 1864]
Method in brief: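 MetaXpress counted nuclei in 4× images of lung cancer cell lines that had been fixed, permeabilised and Hoechst-stained in one step. Before that, cells in 1536-well plates were kept overnight at 37 °C, pinned with five √10-spaced library-drug doses on vehicle-anchored plates, and cultured 5 days without medium change. Viability takes treated-well nuclei over vehicle-well nuclei and uses the median across plates. Plates were accepted only at control CV below 25% and at least one doubling.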

EHT 1864 + Bortezomib = compound: C1COCCN1CC2=CC(=O)C(=CO2)OCCCCCSC3=C4C=CC(=CC4=NC=C3)C(F)(F)F [EHT 1864] + CC(C)C[C@H](NC(=O)[C@H](Cc1ccccc1)NC(=O)c1cnccn1)B(O)O [Bortezomib] (partner 0.002 µM)
Method in brief: (§1)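 Nuclei were stained with Hoechst during a one-step fixation (final 0.05% Triton X-100, 1% formaldehyde, 1 ug/ml Hoechst) carried out 5 days after dosing, then counted on 4× images. The cells, lung cancer lines in 1536-well plates, had been dosed by pin tool the day after seeding with one drug alone or a fixed anchor-drug dose plus five library-drug doses (not always all listed) in √10 steps. Relative viability is the nuclei count in treated wells divided by that in vehicle wells, and each value is the median of duplicate plates.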

EHT 1864 + Navitoclax = compound: C1COCCN1CC2=CC(=O)C(=CO2)OCCCCCSC3=C4C=CC(=CC4=NC=C3)C(F)(F)F [EHT 1864] + CC1(C)CCC(c2ccc(Cl)cc2)=C(CN2CCN(c3ccc(C(=O)NS(=O)(=O)c4ccc(N[C@H](CCN5CCOCC5)CSc5ccccc5)c(S(=O)(=O)C(F)(F)F)c4)cc3)CC2)C1 [Navitoclax] (partner 0.5 µM)
Method in brief: as §1

EHT 1864 + Foretinib = compound: C1COCCN1CC2=CC(=O)C(=CO2)OCCCCCSC3=C4C=CC(=CC4=NC=C3)C(F)(F)F [EHT 1864] + COc1cc2c(Oc3ccc(NC(=O)C4(C(=O)Nc5ccc(F)cc5)CC4)cc3F)ccnc2cc1OCCCN1CCOCC1 [Foretinib] (partner 0.25 µM)
Method in brief: as §1

EHT 1864 + Lapatinib = compound: C1COCCN1CC2=CC(=O)C(=CO2)OCCCCCSC3=C4C=CC(=CC4=NC=C3)C(F)(F)F [EHT 1864] + CS(=O)(=O)CCNCc1ccc(-c2ccc3ncnc(Nc4ccc(OCc5cccc(F)c5)c(Cl)c4)c3c2)o1 [Lapatinib] (partner 2 µM)
Method in brief: as §1

EHT 1864 + Pictilisib = compound: C1COCCN1CC2=CC(=O)C(=CO2)OCCCCCSC3=C4C=CC(=CC4=NC=C3)C(F)(F)F [EHT 1864] + CS(=O)(=O)N1CCN(Cc2cc3nc(-c4cccc5[nH]ncc45)nc(N4CCOCC4)c3s2)CC1 [Pictilisib] (partner 1 µM)
Method in brief: as §1

EHT 1864 + Crizotinib = compound: C1COCCN1CC2=CC(=O)C(=CO2)OCCCCCSC3=C4C=CC(=CC4=NC=C3)C(F)(F)F [EHT 1864] + C[C@@H](Oc1cc(-c2cnn(C3CCNCC3)c2)cnc1N)c1c(Cl)ccc(F)c1Cl [Crizotinib] (partner 1 µM)
Method in brief: as §1

EHT 1864 + Linsitinib = compound: C1COCCN1CC2=CC(=O)C(=CO2)OCCCCCSC3=C4C=CC(=CC4=NC=C3)C(F)(F)F [EHT 1864] + C[C@]1(O)C[C@@H](c2nc(-c3ccc4ccc(-c5ccccc5)nc4c3)c3c(N)nccn32)C1 [Linsitinib] (partner 1 µM)
Method in brief: as §1

EHT 1864 + Alpelisib = compound: C1COCCN1CC2=CC(=O)C(=CO2)OCCCCCSC3=C4C=CC(=CC4=NC=C3)C(F)(F)F [EHT 1864] + Cc1nc(NC(=O)N2CCC[C@H]2C(N)=O)sc1-c1ccnc(C(C)(C)C(F)(F)F)c1 [Alpelisib] (partner 2 µM)
Method in brief: as §1

EHT 1864 + Olaparib = compound: C1COCCN1CC2=CC(=O)C(=CO2)OCCCCCSC3=C4C=CC(=CC4=NC=C3)C(F)(F)F [EHT 1864] + O=C(c1cc(Cc2n[nH]c(=O)c3ccccc23)ccc1F)N1CCN(C(=O)C2CC2)CC1 [Olaparib] (partner 8 µM)
Method in brief: as §1

EHT 1864 + Luminespib = compound: C1COCCN1CC2=CC(=O)C(=CO2)OCCCCCSC3=C4C=CC(=CC4=NC=C3)C(F)(F)F [EHT 1864] + CCNC(=O)c1noc(-c2cc(C(C)C)c(O)cc2O)c1-c1ccc(CN2CCOCC2)cc1 [Luminespib] (partner 0.01 µM)
Method in brief: as §1

EHT 1864 + OSI-027 = compound: C1COCCN1CC2=CC(=O)C(=CO2)OCCCCCSC3=C4C=CC(=CC4=NC=C3)C(F)(F)F [EHT 1864] + COc1cccc2cc(-c3nc([C@H]4CC[C@H](C(=O)O)CC4)n4ncnc(N)c34)[nH]c12 [OSI-027] (partner 0.5 µM)
Method in brief: as §1

EHT 1864 + Tozasertib = compound: C1COCCN1CC2=CC(=O)C(=CO2)OCCCCCSC3=C4C=CC(=CC4=NC=C3)C(F)(F)F [EHT 1864] + Cc1cc(Nc2cc(N3CCN(C)CC3)nc(Sc3ccc(NC(=O)C4CC4)cc3)n2)n[nH]1 [Tozasertib] (partner 0.1 µM)
Method in brief: as §1

EHT 1864 + Dasatinib = compound: C1COCCN1CC2=CC(=O)C(=CO2)OCCCCCSC3=C4C=CC(=CC4=NC=C3)C(F)(F)F [EHT 1864] + Cc1nc(Nc2ncc(C(=O)Nc3c(C)cccc3Cl)s2)cc(N2CCN(CCO)CC2)n1 [Dasatinib] (partner 0.075 µM)
Method in brief: as §1

EHT 1864 + Phenformin = compound: C1COCCN1CC2=CC(=O)C(=CO2)OCCCCCSC3=C4C=CC(=CC4=NC=C3)C(F)(F)F [EHT 1864] + N=C(N)NC(=N)NCCc1ccccc1 [Phenformin] (partner 250 µM)
Method in brief: as §1

## Calu-6
EHT 1864; 0.04 µM
  relative viability: 1
EHT 1864; 0.1265 µM
  relative viability: 0.93
EHT 1864; 0.4 µM
  relative viability: 1.01
EHT 1864; 1.265 µM
  relative viability: 0.991
EHT 1864; 4 µM
  relative viability: 0.955
EHT 1864 + Bortezomib; first compound 0.04 µM
  relative viability: 0.97
EHT 1864 + Bortezomib; first compound 0.1265 µM
  relative viability: 0.844
EHT 1864 + Bortezomib; first compound 0.4 µM
  relative viability: 0.846
EHT 1864 + Bortezomib; first compound 1.265 µM
  relative viability: 1.11
EHT 1864 + Bortezomib; first compound 4 µM
  relative viability: 0.917
EHT 1864 + Navitoclax; first compound 0.04 µM
  relative viability: 0.816
EHT 1864 + Navitoclax; first compound 0.1265 µM
  relative viability: 0.7
EHT 1864 + Navitoclax; first compound 0.4 µM
  relative viability: 0.876
EHT 1864 + Navitoclax; first compound 1.265 µM
  relative viability: 0.757
EHT 1864 + Navitoclax; first compound 4 µM
  relative viability: 0.764
EHT 1864 + Foretinib; first compound 0.04 µM
  relative viability: 0.932
EHT 1864 + Foretinib; first compound 0.1265 µM
  relative viability: 0.853
EHT 1864 + Foretinib; first compound 0.4 µM
  relative viability: 0.846
EHT 1864 + Foretinib; first compound 1.265 µM
  relative viability: 0.913
EHT 1864 + Foretinib; first compound 4 µM
  relative viability: 0.87
EHT 1864 + Lapatinib; first compound 0.04 µM
  relative viability: 1.03
EHT 1864 + Lapatinib; first compound 0.1265 µM
  relative viability: 0.933
EHT 1864 + Lapatinib; first compound 0.4 µM
  relative viability: 1.03
EHT 1864 + Lapatinib; first compound 1.265 µM
  relative viability: 1.04
EHT 1864 + Lapatinib; first compound 4 µM
  relative viability: 0.857
EHT 1864 + Pictilisib; first compound 0.04 µM
  relative viability: 0.899
EHT 1864 + Pictilisib; first compound 0.1265 µM
  relative viability: 0.866
EHT 1864 + Pictilisib; first compound 0.4 µM
  relative viability: 0.862
EHT 1864 + Pictilisib; first compound 1.265 µM
  relative viability: 0.902
EHT 1864 + Pictilisib; first compound 4 µM
  relative viability: 0.83
EHT 1864 + Crizotinib; first compound 0.04 µM
  relative viability: 0.763
EHT 1864 + Crizotinib; first compound 0.1265 µM
  relative viability: 0.767
EHT 1864 + Crizotinib; first compound 0.4 µM
  relative viability: 0.676
EHT 1864 + Crizotinib; first compound 1.265 µM
  relative viability: 0.748
EHT 1864 + Crizotinib; first compound 4 µM
  relative viability: 0.733
EHT 1864 + Linsitinib; first compound 0.04 µM
  relative viability: 0.99
EHT 1864 + Linsitinib; first compound 0.1265 µM
  relative viability: 0.737
EHT 1864 + Linsitinib; first compound 0.4 µM
  relative viability: 0.96
EHT 1864 + Linsitinib; first compound 1.265 µM
  relative viability: 0.875
EHT 1864 + Linsitinib; first compound 4 µM
  relative viability: 0.893
EHT 1864 + Alpelisib; first compound 0.04 µM
  relative viability: 0.983
EHT 1864 + Alpelisib; first compound 0.1265 µM
  relative viability: 0.932
EHT 1864 + Alpelisib; first compound 0.4 µM
  relative viability: 0.948
EHT 1864 + Alpelisib; first compound 1.265 µM
  relative viability: 1.01
EHT 1864 + Alpelisib; first compound 4 µM
  relative viability: 0.904
EHT 1864 + Olaparib; first compound 0.04 µM
  relative viability: 0.615
EHT 1864 + Olaparib; first compound 0.1265 µM
  relative viability: 0.563
EHT 1864 + Olaparib; first compound 0.4 µM
  relative viability: 0.594
EHT 1864 + Olaparib; first compound 1.265 µM
  relative viability: 0.507
EHT 1864 + Olaparib; first compound 4 µM
  relative viability: 0.502

## NCI-H1623
EHT 1864; 0.04 µM
  relative viability: 0.995
EHT 1864; 0.1265 µM
  relative viability: 0.972
EHT 1864; 0.4 µM
  relative viability: 1.02
EHT 1864; 1.265 µM
  relative viability: 0.921
EHT 1864; 4 µM
  relative viability: 1.14
EHT 1864 + Luminespib; first compound 0.04 µM
  relative viability: 0.584
EHT 1864 + Luminespib; first compound 0.1265 µM
  relative viability: 0.522
EHT 1864 + Luminespib; first compound 0.4 µM
  relative viability: 0.445
EHT 1864 + Luminespib; first compound 1.265 µM
  relative viability: 0.581
EHT 1864 + Luminespib; first compound 4 µM
  relative viability: 0.384
EHT 1864 + Foretinib; first compound 0.04 µM
  relative viability: 0.937
EHT 1864 + Foretinib; first compound 0.1265 µM
  relative viability: 0.869
EHT 1864 + Foretinib; first compound 0.4 µM
  relative viability: 0.855
EHT 1864 + Foretinib; first compound 1.265 µM
  relative viability: 0.959
EHT 1864 + Foretinib; first compound 4 µM
  relative viability: 0.959
EHT 1864 + OSI-027; first compound 0.04 µM
  relative viability: 0.439
EHT 1864 + OSI-027; first compound 0.1265 µM
  relative viability: 0.433
EHT 1864 + OSI-027; first compound 0.4 µM
  relative viability: 0.474
EHT 1864 + OSI-027; first compound 1.265 µM
  relative viability: 0.475
EHT 1864 + OSI-027; first compound 4 µM
  relative viability: 0.432
EHT 1864 + Tozasertib; first compound 0.04 µM
  relative viability: 0.418
EHT 1864 + Tozasertib; first compound 0.1265 µM
  relative viability: 0.394
EHT 1864 + Tozasertib; first compound 0.4 µM
  relative viability: 0.445
EHT 1864 + Tozasertib; first compound 1.265 µM
  relative viability: 0.458
EHT 1864 + Tozasertib; first compound 4 µM
  relative viability: 0.399
EHT 1864 + Dasatinib; first compound 0.04 µM
  relative viability: 0.641
EHT 1864 + Dasatinib; first compound 0.1265 µM
  relative viability: 0.676
EHT 1864 + Dasatinib; first compound 0.4 µM
  relative viability: 0.514
EHT 1864 + Dasatinib; first compound 1.265 µM
  relative viability: 0.583
EHT 1864 + Dasatinib; first compound 4 µM
  relative viability: 0.477
EHT 1864 + Phenformin; first compound 0.04 µM
  relative viability: 0.617
EHT 1864 + Phenformin; first compound 0.1265 µM
  relative viability: 0.665
EHT 1864 + Phenformin; first compound 0.4 µM
  relative viability: 0.576
EHT 1864 + Phenformin; first compound 1.265 µM
  relative viability: 0.617
EHT 1864 + Phenformin; first compound 4 µM
  relative viability: 0.539
